# From US20240366602A1, “COMBINATION THERAPY OF APELIN RECEPTOR AGONIST AND GLP-1 RECEPTOR AGONIST FOR TREATING A DISEASE OR CONDITION ASSOCIATED WITH WEIGHT GAIN” (BioAge Labs, Inc., priority 2023, published 2024)
# Several values for one entry are separate records, joined by “and”; a condition that tells them apart may be missing. Identical values can stand only once. Entries after “also recorded” stand apart in the source; their conditions may differ.
# Assays:
# [1] = test system: immortalized muscle precursor cells from human patients; details: cited from earlier work
# [2] = test system: healthy volunteers aged≥65 years; experiment: Phase 1b Part B (MD) 10-day bed rest muscle atrophy study; type: in vivo, human
# Method: In Part B, of the 30 subjects enrolled, all of which are ≥65 years of age. […] In the multi-dose cohorts (1A, 1B, 1C), PD parameters for effects on changes in insulin sensitivity and muscle indices during a period of bed rest are measured and evaluated to better inform decisions regarding choice of dose and direction of further development.
# In each of the 3 cohorts in Part B, 30 total subjects are enrolled to receive treatment in either Cohort 1A, Cohort 1B, or Cohort 1C. Cohort 1A includes 10 subjects who all receive placebo NS over a 1 hour infusion for 10 days on Days 1 through Day 10. […] Patients are at bed rest for the entire 10-day duration of treatment.
# Vital signs was collected daily and include diastolic and systolic blood pressure and pulse. On Days −1, 1, 5, and 10, vital signs was collected at the following timepoints: predose (additionally temperature and respiratory rate), 0.25 h, 0.5 h, 0.75 h, 1 h, 2 h, 3 h, 4 h, 6 h, 8 h, and 12 h after the start of study drug infusion. Vital signs will also be collected on Day 10 (23 h) and before discharge on Day 12. • D. Safety laboratory tests include complete blood count, clinical chemistries, and urinalysis. • E. Samples are to be collected in the morning. Subjects are to be fasting from 10:00 PM onward (min 8 hours fast) each night but may drink as much water as requested. • F. ECGs are to be taken predose and immediately following the completion of the 1-hour infusion. On Day 11, an ECG will also be taken again 23 h after the start of the Day 10 study drug infusion. • G. AEs was recorded from the start time of the first consumption of heavy water until the end of the subject's participation in the study. At discharge from the unit, any ongoing AEs was documented in source and in EDC was followed until the event is resolved or stabilized. […] On Days 1, 5, and 10, PK samples were collected at the following timepoints: predose, 0.25 h, 0.5 h, 0.75 h, 1 h, 2 h, 3 h, 4 h, 6 h, 8 h, and 12 h after the start of study drug infusion. Samples will also be collected 24 h (Day 11), 48 h (Day 12), 72 h (Day 13), and 96 h (Day 14) after the start of the last infusion. PK samples were taken from the opposite arm used for the IV infusion. • J. Continuous cardiac ECG telemetry monitoring was used starting on Day 1 pre-dose and continuing through the end of dosing on Day 10. • K. Subjects were asked to remain in their beds, apart from using a wheelchair to be taken to the shower and they will shower seated. They will also use a wheelchair to get to and from the bathroom. When not in bed, subjects were in a wheelchair. • L. Subjects will wear the pneumatic compression cuffs the entire duration of bed rest, except for when in a wheelchair to use the bathroom and shower. • M. Muscle circumference, cross-sectional area, color flow analysis, AP diameter, and echo density of the vastus lateralis and gastrocnemius were measured by ultrasound. Ultrasound imaging must be conducted by the same technician throughout the study for all subjects. […]
# [3] = Phase 1 study BGE-105-101 Part A (SAD) pharmacokinetics after IV infusion; type: in vivo, human; details: for Dose-normalized AUCinf / Dose-normalized Cmax: Mean, unit assumed
# Method: In Part A, of 24 subjects enrolled (3 SAD cohorts, 8 subjects each), a total of at least 12 subjects are ≥65 years of age (≥4 subjects in each cohort). The remaining subjects are ≥18 years old.
# After a baseline period of 24 hours in the clinic, all subjects receive a LD, 1-hour infusion on Day 1. After a 48-hour wash-out period, in which PK and PK/PD data iscollected, subjects receive a 23-hour infusion (1-hour LD followed by a 22-hour maintenance dose). See FIG. 45 for the different dose levels in each SAD cohort. See e.g., Table 33 below. Part A is double-blinded. The cohorts of Part A is conducted sequentially starting with SAD cohort 1.
# On Day 1 for Part A, subjects receive LD, 1-hour infusion. On Day 3, after a 48-hour washout period, subjects then receive a 23-hour infusion (1-hour LD followed by a 22-hour MD). No earlier than 24 hours after the end of infusion, subjects is discharged from the clinic on Day 5 (End of Treatment Period [EOTP]). A treatment protocol for the SAD cohorts of Part A is described below: • a. Predose assessments (vital signs and PK assessments) should be done within 30 min of the start of infusion. • b. Vital signs include diastolic and systolic blood pressure and pulse. In addition, temperature and respiratory rate should be collected on predose Day 1 and EOT Day 5. • c. Safety laboratory tests include complete blood count, clinical chemistries, and urinalysis. • d. Assessments should be done within 1 hour after the end of the LD infusions on Day 1 and Day 3. • e. AEs was recorded from the start time of the first BGE-105 or placebo study drug infusion until the end of the subject's participation in the study. At discharge from the unit, any ongoing AEs was documented in source and in EDC be followed until the event is resolved or stabilized. Any new AEs occurring after discharge will clearly note the start date and end date. • f. Study drug was administered via IV infusion as a LD, 1-hour infusion on Day 1. After a 48-hour wash-out, study drug will then be administered as a 23-hour infusion (1-hour LD followed by a 22-hour MD). • g. Continuous cardiac ECG telemetry monitoring was used, continuing through the end of dosing on Day 4. • h. Blood samples for plasma insulin and glucose monitoring should be collected in the morning, before breakfast and after fasting overnight. • i. Assessments can be done any time after 24 hours after the end of infusion and before discharge.
# Relevant plasma PK parameters are derived for BGE-105 by standard noncompartmental methods and tabulated along with descriptive statistics and graphs.
# [4] = test system: healthy older adult humans; experiment: BGE-105 in immobilized human muscles, 10 days bed rest (Example 11); type: in vivo; details: 200 mg of BGE-105 a day
# Excerpt: Two groups of healthy older adult humans (e.g., n=10 per group) who are moderately active remain in bed continuously for 10 days, except for toileting, and they consume a eucaloric diet providing the recommended dietary allowance for protein (0.8 g/kg of protein per day). […] Measurements before and after bed rest include muscle function and protein synthesis.
# [5] = 10-day bed rest, BGE-105 240 mg daily (cohort MD 1B)
# [6] = 10-day bed rest, BGE-105 240 mg daily (cohort MD 1B), vastus lateralis ultrasound
# [7] = 10 days of bed rest, ultrasound
# [8] = BGE-105 240 mg once daily IV for 10 days vs placebo
structure (smiles),measurement,setting,value
"COc1cccc(OC)c1-n1c(NS(=O)(=O)[C@@H](C)[C@H](C)c2ncc(C)cn2)nnc1-c1cncc(C)c1 [BGE-105, (2S,3R)—N-(4-(2,6-dimethoxyphenyl)-5-(5-methyl-3-pyridinyl)-4H-1,2,4-triazol-3-yl)-3-(5-methyl-2-pyrimidinyl)-2-butanesulfonamide]",Cell growth and differentiation,[1],"dose-dependent relationship between cell growth and differentiation, and concentration of BGE-105"
same,"Muscle grade (progression), % change: baseline to D10",[2]; [5],−9%
same,"Thigh circumference, % change: baseline to D10",[2]; [5],+0.8%
same,"Cumulative protein synthesis, % change: baseline to D10","[2]; 10-day bed rest, BGE-105 240 mg daily (cohort MD 1B), biopsy",22%
same,"AP diameter (thickness), % change: baseline to D10",[2]; [6],−8.0%
same,"Cross-sectional area (CSA), % change: baseline to D10",[2]; [6],−5.7%
same,"Muscle quality grade worsened (grade 1 to grade 2), number of volunteers","[2]; 10-day bed rest, ultrasound echo density, placebo 8 of 10",1 of 11 and 1 out of 11 and (1 out of 11)
same,Synthesis of myofibrillar structural proteins such as myosin and troponin,"[2]; 10 days bed rest, D2O method and muscle biopsy",preserved compared to placebo
same,"Muscle protein synthesis, muscle microbiopsy of vastus lateralis","[2]; 10 days of bed rest, bed rest-induced decrease, vs placebo",significantly ameliorated; also recorded: elevated rate of muscle protein synthesis
same,Improvement in thigh circumference relative to placebo,"[2]; 10 days of bed rest, n=11",100%
same,Improvement in vastus lateralis cross-sectional area relative to placebo,[2]; [7],58%
same,Improvement in vastus lateralis thickness relative to placebo,[2]; [7],73%
same,Reduction in loss of vastus lateralis cross-sectional area,[2]; [8],> 50%
same,Reduction in loss of vastus lateralis muscle thickness,[2]; [8],75%
same,Mean normalized fraction synthetic rate,"[2]; BGE-105 treated patients with elevated rate, after 10 days of bed rest",0.18-2.2
same,Improvement in muscle dimension (muscle size by ultrasound),[2]; Cohort 1B vs Cohort 1A,~75%
same,"Physical activity, step ratio by wearable activity device","[2]; Day 10 through Day 60 (post-bedrest), vs placebo",increase in physical activity; also recorded: more pronounced in the BGE-105 group
same,Reduction of the cross-sectional area of the Vastus Lateralis,"[2]; after 10-day bed rest, mean percent change from baseline, placebo 19.47%",8.041%
same,Reduction of vastus lateralis diameter,"[2]; after 10-day bed rest, mean percent change from baseline, placebo 21.18%",5.664%
same,Patients with elevated rate of muscle protein synthesis,"[2]; after 10 days of bed rest, placebo 3 out of 10",8 out of 11
same,Patients with elevated rate of muscle protein synthesis,"[2]; after 10 days of bed rest, placebo 30%",about 72.7%
same,Increase in thigh circumference,"[2]; after the 10-day bed rest period, placebo 6.438% reduction",0.8%
same,"Echo density measurements, increase","[2]; treatment group (Cohort 1B, 240 mg daily), placebo 6.4% decrease",0.8%
same,Dose proportionality of Cmax and AUC,"[3]; 3 SAD cohorts, 95% confidence interval for slope includes 1",demonstrated dose proportionality; also recorded: linear across the dose range
same,Dose-normalized AUCinf,[3]; SAD1 (60 mg/360 mg) Day 1,0.66 µg·h/mL/mg
same,Dose-normalized Cmax,[3]; SAD1 (60 mg/360 mg) Day 1,0.12 µg/mL/mg
same,Dose-normalized AUCinf,[3]; SAD2 (120 mg/720 mg) Day 1,0.49 µg·h/mL/mg
same,Dose-normalized Cmax,[3]; SAD2 (120 mg/720 mg) Day 1,0.11 µg/mL/mg
same,Dose-normalized AUCinf,[3]; SAD3 (240 mg/1440 mg) Day 1,0.5 µg·h/mL/mg
same,Dose-normalized Cmax,[3]; SAD3 (240 mg/1440 mg) Day 1,0.11 µg/mL/mg
same,Muscle atrophy in immobilized human muscles,[4],prevent or attenuate muscle atrophy
